From patent US20220249463A1, “METHODS OF ALTERING CARDIAC REMODELING USING COMPOUNDS THAT PROMOTE GLUCOSE OXIDATION” (IMBRIA PHARMACEUTICALS, INC., priority 2019, published 2022)

Assay: Stability of CV-8972 in aqueous solution at different concentrations and pH
Type: physicochemical
Protocol: The stability of CV-8972 was analyzed. Aqueous samples containing CV-8972 at different concentrations and pH were incubated for various periods and analyzed.
Form A of CV-8972 were analyzed for stability in aqueous solution. Aqueous samples containing CV-8972 at different concentrations and pH were incubated for various periods and analyzed.

[1] = 289-MBA-15-A 2 mg/mL pH 6 (Form B), 22 hrs, pH 6.7
[2] = 289-MBA-15-A 2 mg/mL pH 7 (Form B), 0 hrs, pH 6.5
[3] = 289-MBA-15-A 2 mg/mL pH 7 (Form B), 1 hrs, pH 6.6
[4] = 289-MBA-15-A 2 mg/mL pH 7 (Form B), 4 hrs, pH 6.5
[5] = 289-MBA-15-A 10 mg/mL pH 6 (Form B), 0 hrs, pH 6
[6] = 289-MBA-15-A 10 mg/mL pH 6 (Form B), 1 hrs, pH 6.1
[7] = 289-MBA-15-A 10 mg/mL pH 6 (Form B), 4 hrs, pH 6
[8] = 289-MBA-15-A 10 mg/mL pH 6 (Form B), 6 hrs, pH 5.9
[9] = 289-MBA-15-A 10 mg/mL pH 6 (Form B), 22 hrs, pH 5.9
[10] = 289-MBA-15-A 10 mg/mL pH 7 (Form B), 0 hrs, pH 7.4
[11] = 289-MBA-15-A 10 mg/mL pH 7 (Form B), 1 hrs, pH 7.4
[12] = 289-MBA-15-A 10 mg/mL pH 7 (Form B), 4 hrs, pH 7.4
[13] = 289-MBA-15-A 10 mg/mL pH 7 (Form B), 6 hrs, pH 7.3
[14] = Form A, aqueous, 4.2 mg/mL, Initial pH = 2.3, 0 hrs
[15] = Form A, aqueous, 4.2 mg/mL, Initial pH = 2.3, 1 hrs
[16] = Form A, aqueous, 4.2 mg/mL, Initial pH = 2.3, 2 hrs
[17] = Form A, aqueous, 4.2 mg/mL, Initial pH = 2.3, 6 hrs
[18] = Form A, aqueous, 12.5 mg/mL, Initial pH = 2.1, 0 hrs
[19] = Form A, aqueous, 12.5 mg/mL, Initial pH = 2.1, 1 hrs
[20] = Form A, aqueous, 12.5 mg/mL, Initial pH = 2.1, 2 hrs
[21] = Form A, aqueous, 12.5 mg/mL, Initial pH = 2.1, 6 hrs
[22] = Form A, aqueous, 21 mg/mL, Initial pH = 2.0, 0 hrs
[23] = Form A, aqueous, 21 mg/mL, Initial pH = 2.0, 1 hrs
[24] = Form A, aqueous, 21 mg/mL, Initial pH = 2.0, 2 hrs
[25] = Form A, aqueous, 21 mg/mL, Initial pH = 2.0, 6 hrs

Structure (SMILES): COc1ccc(CN2CCN(CCOC(=O)c3cccnc3)CC2)c(OC)c1OC [CV-8972, 2-(4-(2,3,4-trimethoxybenzyl)piperazin-1-yl)ethyl nicotinate]
- Retention Time 2.2 [1]: 7.72
- Retention Time 2.6 [1]: 1.13
- Retention Time 4.2 [1]: 0.86
- Retention Time 4.7 [1]: 1.14
- Retention Time 5.6 [1]: 89.15
- Retention Time 2.2 [2]: 1.62
- Retention Time 4.2 [2]: 0.9
- Retention Time 5.6 [2]: 97.48
- Decrease in purity of CV-8972 between time points [3]: 2.02
- Retention Time 2.2 [3]: 3.16
- Retention Time 4.2 [3]: 0.89
- Retention Time 4.7 [3]: 0.49
- Retention Time 5.6 [3]: 95.46
- Decrease in purity of CV-8972 between time points [4]: 1.54
- Retention Time 2.2 [4]: 4.27
- Retention Time 2.6 [4]: 0.53
- Retention Time 4.2 [4]: 0.66
- Retention Time 4.7 [4]: 0.62
- Retention Time 5.6 [4]: 93.92
- Retention Time 2.2 [5]: 3.3
- Retention Time 2.6 [5]: 0.6
- Retention Time 4.2 [5]: 0.26
- Retention Time 4.7 [5]: 0.48
- Retention Time 5.6 [5]: 95.36
- Decrease in purity of CV-8972 between time points [6]: 0.55
- Retention Time 2.2 [6]: 3.76
- Retention Time 2.6 [6]: 0.65
- Retention Time 4.2 [6]: 0.25
- Retention Time 4.7 [6]: 0.53
- Retention Time 5.6 [6]: 94.81
- Decrease in purity of CV-8972 between time points [7]: 0.12
- Retention Time 2.2 [7]: 3.97
- Retention Time 2.6 [7]: 0.59
- Retention Time 4.2 [7]: 0.19
- Retention Time 4.7 [7]: 0.56
- Retention Time 5.6 [7]: 94.69
- Decrease in purity of CV-8972 between time points [8]: 0.3
- Retention Time 2.2 [8]: 4.3
- Retention Time 2.6 [8]: 0.54
- Retention Time 4.2 [8]: 0.17
- Retention Time 4.7 [8]: 0.6
- Retention Time 5.6 [8]: 94.39
- Decrease in purity of CV-8972 between time points [9]: 0.46
- Retention Time 2.2 [9]: 4.53
- Retention Time 2.6 [9]: 0.69
- Retention Time 4.2 [9]: 0.19
- Retention Time 4.7 [9]: 0.65
- Retention Time 5.6 [9]: 93.93
- Retention Time 2.2 [10]: 6.2
- Retention Time 2.6 [10]: 1.16
- Retention Time 4.2 [10]: 0.27
- Retention Time 4.7 [10]: 0.87
- Retention Time 5.6 [10]: 91.5
- Decrease in purity of CV-8972 between time points [11]: 5.32
- Retention Time 2.2 [11]: 10.47
- Retention Time 2.6 [11]: 1.65
- Retention Time 4.2 [11]: 0.25
- Retention Time 4.7 [11]: 1.44
- Retention Time 5.6 [11]: 86.18
- Decrease in purity of CV-8972 between time points [12]: 3.82
- Retention Time 2.2 [12]: 13.64
- Retention Time 2.6 [12]: 1.93
- Retention Time 4.2 [12]: 0.19
- Retention Time 4.7 [12]: 1.89
- Retention Time 5.6 [12]: 82.36
- Decrease in purity of CV-8972 between time points [13]: 2.99
- Retention Time 2.2 [13]: 15.66
- Retention Time 2.6 [13]: 2.57
- Retention Time 4.2 [13]: 0.2
- Retention Time 4.7 [13]: 0.2
- Retention Time 5.6 [13]: 79.37
- Retention Time 3.9 [14]: 5.35
- Retention Time 5.4 [14]: 94.65
- % change from t0 of RT 5.4 [15]: 1.41%
- Retention Time 3.9 [15]: 4.02
- Retention Time 5.4 [15]: 95.98
- % change from t0 of RT 5.4 [16]: −3.66%
- Amount of peak at retention time 1.9 [16]: 3.72
- Retention Time 3.9 [16]: 5.09
- Retention Time 5.4 [16]: 91.19
- % change from t0 of RT 5.4 [17]: −10.21%
- Amount of peak at retention time 1.9 [17]: 9.71
- Retention Time 3.9 [17]: 5.3
- Retention Time 5.4 [17]: 84.99
- Retention Time 3.9 [18]: 1.79
- Retention Time 5.4 [18]: 98.21
- % change from t0 of RT 5.4 [19]: −1.02%
- Amount of peak at retention time 1.9 [19]: 1.38
- Retention Time 3.9 [19]: 1.41
- Retention Time 5.4 [19]: 97.21
- % change from t0 of RT 5.4 [20]: −2.35%
- Amount of peak at retention time 1.9 [20]: 2.43
- Retention Time 3.9 [20]: 1.67
- Retention Time 5.4 [20]: 95.9
- % change from t0 of RT 5.4 [21]: −8.79%
- Retention Time 2.2 [21]: 1.04
- Retention Time 3.9 [21]: 1.74
- Retention Time 5.4 [21]: 89.58
- Retention Time 3.9 [22]: 1.12
- Retention Time 5.4 [22]: 98.88
- % change from t0 of RT 5.4 [23]: −0.86%
- Amount of peak at retention time 1.9 [23]: 1.03
- Retention Time 3.9 [23]: 0.94
- Retention Time 5.4 [23]: 98.03
- % change from t0 of RT 5.4 [24]: −1.79%
- Amount of peak at retention time 1.9 [24]: 1.9
- Retention Time 3.9 [24]: 1
- Retention Time 5.4 [24]: 97.11
- % change from t0 of RT 5.4 [25]: −6.78%
- Retention Time 2.2 [25]: 0.83
- Retention Time 3.9 [25]: 0.96
- Retention Time 5.4 [25]: 92.18
